Consider five compounds from US8957051B2, “Bicyclic 1, 2, 4-oxadiazoles derivatives as sphingosine-1 phosphate receptors modulators” (Allergan, Inc., priority 2012, dated 2015).

SMILES strings stand for the structures.

T1 sequence (P21453 whole entry): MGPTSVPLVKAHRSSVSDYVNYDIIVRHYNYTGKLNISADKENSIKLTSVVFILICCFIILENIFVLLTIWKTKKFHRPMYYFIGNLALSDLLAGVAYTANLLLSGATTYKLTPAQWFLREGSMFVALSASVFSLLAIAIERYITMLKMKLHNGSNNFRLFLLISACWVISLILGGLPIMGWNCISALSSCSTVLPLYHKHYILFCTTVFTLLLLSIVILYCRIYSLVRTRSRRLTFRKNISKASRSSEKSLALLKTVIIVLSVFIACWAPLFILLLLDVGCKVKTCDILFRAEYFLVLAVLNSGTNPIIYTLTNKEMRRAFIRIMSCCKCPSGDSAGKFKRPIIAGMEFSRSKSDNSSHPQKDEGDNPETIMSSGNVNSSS

The assay addresses T1, human S1P1 receptor (Homo sapiens, UniProt P21453).
T1 construct: expressed in transfected cells; membranes were used
Put plainly: GTP γ35S binding assay for S1P1 activity. The class given is biochemical. The settings on record: membranes of cells stably expressing S1P1 receptor, agonist potency. Here is the method:
Compounds were synthesized and tested for S1P1 activity using the GTP γ^355 binding assay. These compounds may be assessed for their ability to activate or block activation of the human S1P1 receptor in cells stably expressing the S1P1 receptor.
GTP γ^355 binding was measured in the medium containing (mM) HEPES 25, pH 7.4, MgCl2 10, NaCl 100, dithiothreitol 0.5, digitonin 0.003%, 0.2 nM GTP γ^355, and 5 μg membrane protein in a volume of 150 μl. Test compounds were included in the concentration range from 0.08 to 5,000 nM unless indicated otherwise. Membranes were incubated with 100 μM 5′-adenylylimidodiphosphate for 30 min, and subsequently with 10 μM GDP for 10 min on ice. Drug solutions and membrane were mixed, and then reactions were initiated by adding GTP γ^355 and continued for 30 min at 25° C. Reaction mixtures were filtered over Whatman GF/B filters under vacuum, and washed three times with 3 mL of ice-cold buffer (HEPES 25, pH7.4, MgCl2 10 and NaCl 100). Filters were dried and mixed with scintillant, and counted for ^35S activity using a β-counter. Agonist-induced GTP γ^355 binding was obtained by subtracting that in the absence of agonist. Binding data were analyzed using a non-linear regression method. In case of antagonist assay, the reaction mixture contained 10 nM […] in the presence of test antagonist at concentrations ranging from 0.08 to 5000 nM.
(In general: Binding of GTPγS marks nucleotide exchange on a G protein.)
One may read the EC50 as the midpoint of the concentration-response curve. A low value points to higher potency in that assay. In the case of `O=P(O)(O)CCCNCc1ccc(-c2noc(CCCCc3ccccc3)n2)c2cccnc12` [Compound 1, {3-[({5-[5-(4-Phenylbutyl)-1,2,4-oxadiazol-3-yl]quinolin-8-yl}methyl)amino]propyl}phosphonic acid], the response was half-maximal at 0.00352 µM (EC50).

`O=P(O)(O)CCCNCc1ccc(-c2noc(CCCc3ccccc3)n2)c2cccnc12` [Compound 2, {3-[({5-[5-(3-Phenylpropyl)-1,2,4-oxadiazol-3-yl]quinolin-8-yl}methyl)amino]propyl}phosphonic acid]: the EC50 was determined as 0.00987 µM.

`O=P(O)(O)CCCNCc1ccc(-c2noc(CCCCCc3ccccc3)n2)c2cccnc12` [Compound 3, {3-[({5-[5-(5-Phenylpentyl)-1,2,4-oxadiazol-3-yl]quinolin-8-yl}methyl)amino]propyl}phosphonic acid] showed an EC50 of 0.0467 µM. This EC50 is about 4.7-fold higher than that of the compound before.

The compound `O=P(O)(O)CCCNCc1ccc(-c2noc(CCCCc3ccccc3)n2)c2ccccc12` [Compound 4, {3-[({4-[5-(4-Phenylbutyl)-1,2,4-oxadiazol-3-yl]-1-naphthyl}methyl)amino]propyl}phosphonic acid] came in with a concentration giving a half-maximal response (EC50) of 0.0249 µM. This EC50 is about 1.9-fold lower than that of the compound before.

Take `O=P(O)(O)OCCNCc1ccc(-c2noc(CCCCc3ccccc3)n2)c2ccccc12` [Compound 6, 2-[({4-[5-(4-Phenylbutyl)-1,2,4-oxadiazol-3-yl]-1-naphthyl}methyl)amino]ethyl dihydrogen phosphate]: the EC50 was found to be 0.0224 µM.
